Values of other authors in patent US20220372506A1, “CYP81E GENES […] TOLERANCE” (Colorado State University Research Foundation, priority 2020, published 2022).
“Also recorded” adds a separate entry of the source.

Experiments:
[1] = system: A. tuberculatus CHR population; details: CHR population compared to WUS; for level of resistance (dose response): Evans et al. 2019
[2] = system: A. tuberculatus NEB population
[3] = system: A. tuberculatus NEB population; details: malathion pre-treatment before 2,4-D, Figueiredo et al. 2018

For `CS(=O)(=O)c1ccc(C(=O)C2C(=O)CCCC2=O)c(Cl)c1COCC(F)(F)F` [tembotrione], the resistance to tembotrione ([1]; Murphy and Tranel, 2019) is listed as 43 fold and the resistance to tembotrione ([2]; NEB population compared to WUS, Murphy and Tranel, 2019) is listed as 15 fold.

For `CCOC(=O)CC(SP(=S)(OC)OC)C(=O)OCC` (stereo not drawn) [malathion], the “effect of pre-treatment on 2,4-D resistance phenotype” value [3] is given as “reverted to sensitivity; also recorded: reversed the resistance phenotype”.

For `O=C(O)COc1ccc(Cl)cc1Cl` [2,4-D, 2,4-dichlorophenoxyacetic acid], the “level of resistance (dose response)” value [1] is given as 9 fold and the “level of 2,4-D resistance” value ([2]; NEB population compared to the Nebraska 2,4-D sensitive population, Bernards et al. 2012) is given as 10 fold.

For `CS(=O)(=O)c1ccc(C(=O)C2C(=O)CCCC2=O)c([N+](=O)[O-])c1` [mesotrione], the “level of resistance (dose response)” value [1] is given as about 15 fold.
